Results on four molecules are retold here after US5354549A, “Iodinated esters” (Nycomed Imaging AS, priority 1987, dated 1994).

Series [1] can be described thus: In vitro biodegradation, control in phosphate buffered saline (PBS). Format: in vitro ADME. To be noted: for degraded at 72 h: pH 7.4, 72 hours. Here is the method: (§1) The powdered product of Example 1 is suspended in Seronorm (5 mg/ml) (Seronorm is a trade mark of Nycomed AS) at pH 7.4 and agitated at 37° C. As a control the experiment is also performed in phosphate buffered saline (PBS) at pH 7.4. At different time points samples are taken from the supernatant after centrifugation of the vial (4,000 rpm, 10 minutes). The release of Isopaque (5-(N-acetylamino)-3-(N-acetyl-N-methylamino)-2,4,6-triiodobenzenecarboxylic acid) is analysed by HPLC. More than 50% of the substance is hydrolysed during 6 hours and after 24 hours 90% is hydrolysed.
(§2) The powdered product of Example 3 is suspended in Seronorm (0.5 mg/ml) at pH 7.4 and agitated at 37° C. As a control the experiment is also performed in phosphate buffered saline (PBS) at pit 7.4. At different time points samples are taken from the supernatant after centrifugation of the vial (4,000 rpm, 10 minutes). The release of Isopaque (5-(N-acetylamino)-3-(N-acetyl-N-methylamino)-2,4,6-triiodobenzenecarboxylic acid) is analysed by HPLC. 4.1% of the substance is hydrolysed during 24 hours. In PBS 0.12% is hydrolysed during 72 hours.
(§3) The powdered product of Example 10 is suspended in Seronorm (0.5 mg/ml) at pH 7.4 and agitated at 37° C. As a control the experiment is also performed in phosphate buffered saline (PBS) at pH 7.4. At different time points samples are taken from the supernatant after centrifugation of the vial (4,000 rpm, 10 minutes). The release of Isopaque (5-(N-acetylamino)-3-(N-acetyl-N-methylamino)-2,4,6-triiodobenzenecarboxylic acid) is analysed by HPLC. […] In PBS 58% is hydrolysed during 72 hours.
(§4) The powdered product of Example 4 is suspended in Seronorm at (0.5 mg/ml) pH 7.4 and agitated at 37° C. As a control the experiment is also performed in phosphate buffered saline (PBS) at pH 7.4. At different time points samples are taken from the supernatant after centrifugation of the vial (4,000 rpm, 10 minutes). The release of Isopaque (5-(N-acetylamino)-3-(N-acetyl-N-methylamino)-2,4,6-triiodobenzenecarboxylic acid) is analysed by HPLC. […] In PBS 34% was hydrolysed during 24 hours.

The nature of series [2]: In vitro biodegradation in Seronorm (release of Isopaque analysed by HPLC). Format: in vitro ADME. To be noted: pH 7.4, 37° C. As to the method:
as §1, §2, §3, §4

The mark [3] stands for this setting: read-out: substance hydrolysed in PBS.

Where two headings read alike, the source gives them in different places.

On to `CC(=O)Nc1c(I)c(C(=O)OCOC(=O)C(C)(C)C)c(I)c(N(C)C(C)=O)c1I` [Example 1, Pivaloyloxymethyl 5-(N-acetylamino)-3-(N-acetyl-N-methylamino)-2,4,6-triiodobenzenecarboxylate], for which the “hydrolysis in PBS” value in series [1] (pH 7.4, control) is on record as “no hydrolysis could be detected”. The metabolised at 6 h in series [2] (5 mg/ml, 6 hours, read-out: substance hydrolysed) is more than 50%. For the same molecule, the metabolised at 24 h in series [2] (5 mg/ml, read-out: substance hydrolysed) is 90%.

Take `CC(=O)Nc1c(I)c(C(=O)OC(C)OC(=O)C(C)(C)C)c(I)c(N(C)C(C)=O)c1I` (stereo not shown) [Example 3, 1-(Pivaloylyloxy)ethyl 5-(N-acetylamino)-3-(N-acetyl-N-methyl-amino)-2,4,6-triiodobenzenecarboxylate]: in series [1] (setting [3]), the degraded at 72 h stood at 0.12%. In series [2] (0.5 mg/ml, read-out: substance hydrolysed), the metabolised at 24 h amounted to 4.1%.

Consider `CC(=O)Nc1c(I)c(C(=O)OC(C)OC(C)=O)c(I)c(N(C)C(C)=O)c1I` (stereo not shown) [Example 4, 1-(Acetyloxy)ethyl 5-(N-acetylamino)-3-(N-acetyl-N-methylamino)-2,4,6-triiodobenzenecarboxylate], for which the degraded at 24 h in series [1] (pH 7.4, 24 hours, read-out: substance hydrolysed in PBS) came to 34%. The metabolised at 2 h in series [2] (0.5 mg/ml, 2 hour incubation, read-out: substance hydrolysed) was found to be 29%. Also, in series [2] (0.5 mg/ml, after 24 hours), the “hydrolysis” value is recorded as “hydrolysis is complete”.

For `CC(=O)Nc1c(I)c(C(=O)OCOC(C)=O)c(I)c(N(C)C(C)=O)c1I` [Example 10, Acetyloxvmethyl 5-(N-acetylamino)-3-(N-acetyl-N-methylamino)-2,4,6-triiodobenzenecarboxylate], in series [1] (setting [3]), the degraded at 72 h worked out at 58%. Also, the “hydrolysis of substrate” value in series [2] (0.5 mg/ml, after 2 hours) is “completely hydrolysed”.
